# Data published in paper PMC6072853 (Frontiers in Pharmacology, 2018).
# Like-named read-outs stand apart in the source and are kept apart here.
# Experiments:
# Type in all cases: cell-based, human
# [1] = system: A2780; test: MTT antiproliferative assay, A2780; settings: for Growth inhibition (%) ± SEM / inhibition at 10 µM / inhibition at 30 µM: 72 h; for inhibition at 10 µM / inhibition at 30 µM: Homo sapiens, read-out: Growth inhibition (%) ± SEM
# From the text: (§1) Gynecological cancer cell lines, including ovarian (A2780), cervical (HeLa), and breast cancer cell lines (MCF7, T47D, MDA-MB-231, and MDA-MB-361) were purchased from the European Collection of Authenticated Cell Cultures (ECACC, Salisbury, United Kingdom). Additional cervical cell lines (SiHa and C33A) and a non-cancerous immortalized, mammary gland epithelial cell line (hTERT-HME1) were purchased from LGC Standards GmbH (Wesel, Germany). Non-cancerous fibroblast cells (MRC-5) were also obtained from the ECACC. All cells were cultured in minimal essential medium supplemented with 10% fetal bovine serum, 1% non-essential amino acids, and 1% antibiotic-antimycotic mixture, in humidified air containing 5% CO2 at 37°C. Immortalized hTERT-HME1 cells were maintained in serum-free mammary epithelial cell growth medium (MEGM) supplemented with insulin, human epidermal growth factor (hEGF), hydrocortisone, bovine pituitary extract, and an antibiotic-antimycotic mixture. All the medium and supplements were purchased from Lonza Group Ltd. (Basel, Switzerland).
# (§2) The antiproliferative properties of the compounds were assessed by an MTT assay ([Mosmann, 1983]). Cells were seeded onto 96-well microplates at a density of 10,000 cells/well (MDA-MB-361 and C33A) or 5,000 cells/well (all other cell lines). After an overnight incubation, fresh medium containing the test compounds (at a concentration of 10 or 30 μM) was added. After incubation for 72 h at 37°C in humidified air, [3-(4,5-dimethylthiazol-2-yl)-2,5-diphenyltetrazolium bromide] (MTT) solution (5 mg/mL) was added. Purple formazan crystals were formed by the living cells during a 4 h contact period, which were assayed by spectrophotometry after having been dissolved in 100 μL DMSO. Untreated cells served as control, and cisplatin (CIS) (Ebewe Pharma GmbH, Unterach, Austria) was used as a reference compound. […] Two independent measurements were performed with five parallel wells. To present preliminary data concerning tumor selectivity of the potent compounds, the procedure was repeated on MRC-5 fibroblast and hTERT-HME1 immortalized mammary gland epithelial cells under the same experimental conditions.
# [2] = system: MDA-MB-361; test: MTT antiproliferative assay, MDA-MB-361; settings: for Growth inhibition (%) ± SEM / inhibition at 10 µM / inhibition at 30 µM: 72 h; for inhibition at 10 µM / inhibition at 30 µM: Homo sapiens, read-out: Growth inhibition (%) ± SEM
# From the text: as §1, §2
# [3] = system: SiHa; test: MTT antiproliferative assay, SiHa; settings: 72 h; for inhibition at 10 µM / inhibition at 30 µM: Homo sapiens, read-out: Growth inhibition (%) ± SEM
# From the text: as §1, §2
# [4] = system: C33A; test: MTT antiproliferative assay, C33A; settings: 72 h; for inhibition at 10 µM / inhibition at 30 µM: Homo sapiens, C-33-A, read-out: Growth inhibition (%) ± SEM
# From the text: as §1, §2
# [5] = system: MCF-7; test: MTT antiproliferative assay, MCF-7; settings: 72 h; for inhibition at 10 µM / inhibition at 30 µM: Homo sapiens, MCF7, read-out: Growth inhibition (%) ± SEM
# From the text: as §1, §2
# [6] = system: MDA-MB-231; test: MTT antiproliferative assay, MDA-MB-231; settings: for inhibition at 10 µM / inhibition at 30 µM: Homo sapiens, read-out: Growth inhibition (%) ± SEM; for inhibition at 10 µM: MDA-MB-231, 10 μM
# From the text: as §1, §2
# [7] = system: T47D; test: MTT antiproliferative assay, T47D; settings: 72 h; for inhibition at 10 µM / inhibition at 30 µM: Homo sapiens, read-out: Growth inhibition (%) ± SEM
# From the text: as §1, §2
# [8] = system: MRC-5; test: MTT assay, non-cancerous fibroblasts MRC-5
# From the text: as §1, §2
# [9] = system: hTERT-HME1; test: MTT assay, immortalized mammary gland epithelial cells hTERT-HME1; settings: for Growth inhibition (%) ± SEM: 72 h
# From the text: as §1, §2
# [10] = system: HeLa; test: MTT antiproliferative assay, HeLa; settings: 72 h; for IC50: read-out: calculated IC50 value; for inhibition at 10 µM / inhibition at 30 µM: read-out: Growth inhibition (%) ± SEM
# From the text: as §1, §2
# [11] = read-out: calculated IC50 value
smiles,measurement,setting,value
"N.N.[Cl][Pt][Cl] [CIS, cisplatin, reference compound]",Growth inhibition (%) ± SEM,"[1]; A2780, 10 μM",83.6 ± 1.2%
same,Growth inhibition (%) ± SEM,"[1]; A2780, 30 μM",95.0 ± 0.3%
same,IC50,"[1]; A2780, 72 h, read-out: calculated IC50 value",1.3 µM
same,Growth inhibition (%) ± SEM,"[2]; MDA-MB-361, 10 μM",67.5 ± 1.0%
same,Growth inhibition (%) ± SEM,"[2]; MDA-MB-361, 30 μM",87.8 ± 1.1%
same,IC50,"[2]; MDA-MB-361, 72 h, read-out: calculated IC50 value",3.74 µM
same,Growth inhibition (%) ± SEM,[3]; 10 μM,88.6 ± 0.5%
same,Growth inhibition (%) ± SEM,[3]; 30 μM,90.2 ± 1.8%
same,IC50,[3]; [11],7.84 µM
same,Growth inhibition (%) ± SEM,[4]; 10 μM,83.8 ± 0.8%
same,Growth inhibition (%) ± SEM,[4]; 30 μM,93.9 ± 0.6%
same,IC50,[4]; [11],1.77 µM
same,Growth inhibition (%) ± SEM,"[5]; MCF-7, 10 μM",66.9 ± 1.8%
same,Growth inhibition (%) ± SEM,"[5]; MCF-7, 30 μM",96.8 ± 0.4%
same,Growth inhibition (%) ± SEM,"[6]; MDA-MB-231, 30 μM, 72 h",71.5 ± 1.2%
same,IC50,"[6]; MDA-MB-231, 72 h, read-out: calculated IC50 value",19.1 µM
same,Growth inhibition (%) ± SEM,[7]; 10 μM,51.0 ± 2.0%
same,Growth inhibition (%) ± SEM,[7]; 30 μM,55.0 ± 1.5%
same,IC50,[7]; [11],9.78 µM
same,Growth inhibition (%) ± SEM,"[8]; MRC-5, 10 μM, 72 h",60.3 ± 3.3%
same,Growth inhibition (%) ± SEM,"[8]; MRC-5, 30 μM, 72 h",61.9 ± 1.0%
same,IC50,"[8]; MRC-5, 72 h, read-out: calculated IC50 value",6.19 µM
same,Growth inhibition (%) ± SEM,"[9]; hTERT-HME1, 10 μM",97.7 ± 0.3%
same,Growth inhibition (%) ± SEM,"[9]; hTERT-HME1, 30 μM",99.1 ± 0.3%
same,IC50,"[9]; hTERT-HME1, 72 h, read-out: calculated IC50 value",2.45 µM
same,Growth inhibition (%) ± SEM,[10]; 10 μM,42.6 ± 2.3%
same,Growth inhibition (%) ± SEM,[10]; 30 μM,99.9 ± 0.3%
same,IC50,[10],12.4 µM
"C[C@]12CC[C@H]3[C@@H](CCC4=CC(=O)CC[C@@H]43)[C@@H]1CC[C@H]2O [Compound 2, 17α-19-nortestosterone]",inhibition at 10 µM,"[1]; A2780, 10 μM",< 20%
same,inhibition at 30 µM,"[1]; A2780, 30 μM",< 20%
same,inhibition at 10 µM,"[2]; MDA-MB-361, 10 μM",< 20%
same,inhibition at 30 µM,"[2]; MDA-MB-361, 30 μM",< 20%
same,inhibition at 10 µM,[3]; 10 μM,< 20%
same,inhibition at 30 µM,[3]; 30 μM,< 20%
same,inhibition at 10 µM,[4]; 10 μM,< 20%
same,inhibition at 30 µM,[4]; 30 μM,< 20%
same,inhibition at 10 µM,"[5]; MCF-7, 10 μM",< 20%
same,inhibition at 30 µM,"[5]; MCF-7, 30 μM",27.7 ± 3.7%
same,inhibition at 10 µM,[6]; 72 h,< 20%
same,inhibition at 30 µM,"[6]; MDA-MB-231, 30 μM, 72 h",< 20%
same,inhibition at 10 µM,[7]; 10 μM,< 20%
same,inhibition at 30 µM,[7]; 30 μM,< 20%
same,inhibition at 10 µM,"[10]; Homo sapiens, 10 μM",28.1 ± 4%
same,inhibition at 30 µM,"[10]; Homo sapiens, 30 μM",37.9 ± 3.4%
"C[C@]12CC[C@H]3[C@@H](CCC4=CC(=O)CC[C@@H]43)[C@@H]1CC[C@H]2Br [Compound 4, 17α-bromo-19-nortestosterone]",inhibition at 10 µM,"[1]; A2780, 10 μM",< 20%
same,inhibition at 30 µM,"[1]; A2780, 30 μM",54.4 ± 1.6%
same,inhibition at 10 µM,"[2]; MDA-MB-361, 10 μM",< 20%
same,inhibition at 30 µM,"[2]; MDA-MB-361, 30 μM",< 20%
same,inhibition at 10 µM,[3]; 10 μM,< 20%
same,inhibition at 30 µM,[3]; 30 μM,< 20%
same,inhibition at 10 µM,[4]; 10 μM,< 20%
same,inhibition at 30 µM,[4]; 30 μM,< 20%
same,inhibition at 10 µM,"[5]; MCF-7, 10 μM",< 20%
same,inhibition at 30 µM,"[5]; MCF-7, 30 μM",< 20%
same,inhibition at 10 µM,[6]; 72 h,< 20%
same,inhibition at 30 µM,"[6]; MDA-MB-231, 30 μM, 72 h",< 20%
same,inhibition at 10 µM,[7]; 10 μM,< 20%
same,inhibition at 30 µM,[7]; 30 μM,< 20%
same,inhibition at 10 µM,"[8]; Homo sapiens, MRC5, MRC-5, 10 μM, 72 h, read-out: Growth inhibition (%) ± SEM",11.9 ± 2.3%
same,inhibition at 30 µM,"[8]; Homo sapiens, MRC5, MRC-5, 30 μM, 72 h, read-out: Growth inhibition (%) ± SEM",20.4 ± 2.1%
same,inhibition at 10 µM,"[10]; Homo sapiens, 10 μM",94.4 ± 0.7%
same,inhibition at 30 µM,"[10]; Homo sapiens, 30 μM",94.1 ± 0.5%
same,IC50,[10]; Homo sapiens,1.69 µM
